# Test results reported in US10385057B2, “Pyrazole compounds and methods of making and using same” (Lundbeck La Jolla Research Center, Inc., priority 2015, dated 2019).
# pIC50: −log10 of the molar value.
# How the values were obtained:
# [1] = target: T1, MAGL (Mus musculus, UniProt O35678); experiment: In vitro competitive activity-based protein profiling, mouse MAGL; format: biochemical; conditions: for inhibition at 1 µM: read-out: MAGL % inh. 1 μM (mouse)
# T1 construct: mouse brain membrane fraction or cell lysates for mouse assays; from tissue
# T1 sequence (O35678 1-303): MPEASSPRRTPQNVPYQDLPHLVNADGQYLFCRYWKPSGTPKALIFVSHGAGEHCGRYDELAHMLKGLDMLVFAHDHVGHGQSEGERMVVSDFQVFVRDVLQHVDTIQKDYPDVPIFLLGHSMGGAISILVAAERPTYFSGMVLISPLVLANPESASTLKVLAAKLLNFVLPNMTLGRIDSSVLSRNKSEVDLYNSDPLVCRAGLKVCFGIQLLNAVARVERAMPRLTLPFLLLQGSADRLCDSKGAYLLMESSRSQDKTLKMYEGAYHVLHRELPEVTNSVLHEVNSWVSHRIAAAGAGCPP
# In short: (§1)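 Activity measured as fluorescent gel-band intensity of MAGL and FAAH after SDS-PAGE. Before labelling with FP-Rh or HT-01 (30 min, 37 °C), proteomes at 1.0 mg/mL (mouse brain membrane or lysates; human prefrontal cortex or cell membranes) were exposed to varying inhibitor concentrations for 30 min at 37 °C.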
# [2] = target: T2, FAAH (Mus musculus, UniProt O08914); experiment: In vitro competitive activity-based protein profiling, mouse FAAH; format: biochemical; conditions: for inhibition at 1 µM: read-out: FAAH % inh. 1 μM (mouse)
# T2 construct: mouse brain membrane fraction or cell lysates for mouse assays; from tissue
# T2 sequence (O08914 1-579): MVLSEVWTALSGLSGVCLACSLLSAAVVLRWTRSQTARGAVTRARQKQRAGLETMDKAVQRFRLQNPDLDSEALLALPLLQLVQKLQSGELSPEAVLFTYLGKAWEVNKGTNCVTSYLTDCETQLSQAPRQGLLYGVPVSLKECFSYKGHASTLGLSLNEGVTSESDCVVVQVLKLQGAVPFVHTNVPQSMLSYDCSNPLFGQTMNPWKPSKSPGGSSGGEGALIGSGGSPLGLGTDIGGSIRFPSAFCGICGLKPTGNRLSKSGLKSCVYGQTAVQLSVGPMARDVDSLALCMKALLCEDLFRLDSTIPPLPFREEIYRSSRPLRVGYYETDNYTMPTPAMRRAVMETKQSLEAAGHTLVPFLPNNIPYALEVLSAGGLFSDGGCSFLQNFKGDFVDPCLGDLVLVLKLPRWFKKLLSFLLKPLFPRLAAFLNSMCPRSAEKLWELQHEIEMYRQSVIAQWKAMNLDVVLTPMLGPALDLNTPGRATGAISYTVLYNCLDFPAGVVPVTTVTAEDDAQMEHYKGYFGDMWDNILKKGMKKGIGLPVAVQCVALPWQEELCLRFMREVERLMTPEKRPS
# In short: as §1
inhibition at 1 µM [1] [%],inhibition at 1 µM [2] [%],pIC50 [1],pIC50 [2],SMILES
≥ 75,≥ 75,≥ 7.00,≥ 7.00,"CN(Cc1cccc(Oc2ccccc2)c1)[C@@H]1C[C@@H]2CN(C(=O)n3cc(Cl)cn3)C[C@@H]2C1 [Example 164, (4-chloro-1H-pyrazol-1-yl)(cis-5-(methyl(3-phenoxybenzyl)amino)hexahydrocyclopenta[c]pyrrol-2(1H)-yl)methanone]"
≥ 75,≥ 75,–,–,"CN(Cc1ccc(Oc2cccnc2)cc1)[C@@H]1C[C@@H]2CN(C(=O)n3cc(Cl)cn3)C[C@@H]2C1 [Example 160, (4-chloro-1H-pyrazol-1-yl)(cis-5-(methyl(4-(pyridin-3-yloxy)benzyl)amino)hexahydrocyclopenta[c]pyrrol-2(1H)-yl)methanone]"
≥ 75,≥ 75,≥ 7.00,≥ 7.00,"O=C(N1CC2CN(Cc3cccc(F)c3)CC2C1)n1cc(C(F)(F)F)cn1 (centres unmarked) [Example 150, (5-(3-fluorobenzyl)hexahydropyrrolo[3,4-c]pyrrol-2(1H)-yl)(4-(trifluoromethyl)-1H-pyrazol-1-yl)methanone]"
≥ 75,≥ 75,≥ 7.00,≥ 7.00,"Cc1cc(N2CCOCC2)ccc1CN1CC2CN(C(=O)n3cc(Cl)cn3)CC2C1 (centres unmarked) [Example 131, (4-chloro-1H-pyrazol-1-yl)(5-(2-methyl-4-morpholinobenzyl)hexahydropyrrolo[3,4-c]pyrrol-2(1H)-yl)methanone]"
≥ 75,≥ 75,≥ 7.00,≥ 7.00,"O=C(N1C[C@H]2C[C@H](NCc3cccc(Cl)c3)C[C@H]2C1)n1cc(Cl)cn1 [Example 75, (4-chloro-1H-pyrazol-1-yl)(trans-5-((3-chlorobenzyl)amino)hexahydrocyclopenta[c]pyrrol-2(1H)-yl)methanone]"
≥ 75,50 to 75,6.00 to 7.00,5.00 to 6.00,"CC(C)c1ccc(CN2CC3CN(C(=O)n4cc(Cl)cn4)CC3C2)c(N2CCCC2)c1 (centres unmarked) [Example 108, (4-chloro-1H-pyrazol-1-yl)(5-(4-isopropyl-2-(pyrrolidin-1-yl)benzyl)hexahydropyrrolo[3,4-c]pyrrol-2(1H)-yl)methanone]"
≥ 75,≥ 75,≥ 7.00,6.00 to 7.00,"O=C(N1CC2CN(Cc3ccc(Cl)cc3N3CCCC3)CC2C1)n1cc(Cl)cn1 (centres unmarked) [Example 101, (4-chloro-1H-pyrazol-1-yl)(5-(4-chloro-2-(pyrrolidin-1-yl)benzyl)hexahydropyrrolo[3,4-c]pyrrol-2(1H)-yl)methanone]"
≥ 75,50 to 75,–,–,"CC(=O)N(Cc1ccc(Cl)cc1)[C@H]1C[C@@H]2CN(C(=O)n3cc(Cl)cn3)C[C@@H]2C1 [Example 70, N-(trans-2-(4-chloro-1H-pyrazole-1-carbonyl)octahydrocyclopenta[c]pyrrol-5-yl)-N-(4-chlorobenzyl)acetamide]"

# The remaining lines, values behind:
SMILES,inhibition at 1 µM [1] [%],inhibition at 1 µM [2] [%],pIC50 [1],pIC50 [2]
"CN(Cc1ccc(-c2cnccn2)cc1C(F)(F)F)[C@@H]1C[C@@H]2CN(C(=O)n3cc(C(N)=O)cn3)C[C@@H]2C1 [Example 226, 1-(cis-5-(methyl(4-(pyrazin-2-yl)-2-(trifluoromethyl)benzyl)amino)octahydrocyclopenta[c]pyrrole-2-carbonyl)-1H-pyrazole-4-carboxamide]",≥ 75,≥ 75,–,–
"O=C(N1CCC2(CCN(Cc3ccccc3Cl)C2)C1)n1cc(C(F)(F)F)cn1 (centres unmarked) [Example 176, (7-(2-chlorobenzyl)-2,7-diazaspiro[4.4]nonan-2-yl)(4-(trifluoromethyl)-1H-pyrazol-1-yl)methanone]",≥ 75,≥ 75,≥ 7.00,≥ 7.00
"O=C(N1CCC2(CCN(Cc3ccc(Cl)cc3)C2)C1)n1cc(Cl)cn1 (centres unmarked) [Example 115, (4-chloro-1H-pyrazol-1-yl)(7-(4-chlorobenzyl)-2,7-daizaspiro[4.4]nonan-2-yl)methanone]",≥ 75,≥ 75,6.00 to 7.00,6.00 to 7.00
"CN(Cc1ccc(-c2cnccn2)cc1C(F)(F)F)[C@H]1C[C@@H]2CN(C(=O)n3cc(C(N)=O)cn3)C[C@@H]2C1 [Example 223, 1-(trans-5-(methyl(4-(pyrazin-2-yl)-2-(trifluoromethyl)benzyl)amino)octahydrocyclopenta[c]pyrrole-2-carbonyl)-1H-pyrazole-4-carboxamide]",≥ 75,≥ 75,–,–
"O=C(c1cnn(C(=O)N2CCC3(CCN(Cc4cc(Cl)cc(C(F)(F)F)c4)C3)C2)c1)N1CCOCC1 (centres unmarked) [Example 35, (1-(7-(3-chloro-5-(trifluoromethyl)benzyl)-2,7-diazaspiro[4.4]nonane-2-carbonyl)-1H-pyrazol-4-yl)(morpholino)methanone]",≥ 75,25 to 50,–,–
"NC(=O)c1cnn(C(=O)N2CC[C@]3(CCN(Cc4cc(Cl)cc(C(F)(F)F)c4)C3)C2)c1 [Example 193, (S)-1-(7-(3-chloro-5-(trifluoromethyl)benzyl)-2,7-diazaspiro[4.4]nonane-2-carbonyl)-1H-pyrazole-4-carboxamide]",–,–,≥ 7.00,≥ 7.00
"O=C(c1cnn(C(=O)N2CCC3(CCN(Cc4cc(Cl)ccc4Cl)C3)C2)c1)N1CCN(C2CC2)CC1 (centres unmarked) [Example 30, (4-cyclopropylpiperazin-1-yl)(1-(7-(2,5-dichlorobenzyl)-2,7-diazaspiro[4.4]nonane-2-carbonyl)-1H-pyrazol-4-yl)methanone]",≥ 75,≥ 75,–,–
"O=C(N1CC2CN(Cc3cccc(C(F)(F)F)c3)CC2C1)n1cc(C(F)(F)F)cn1 (centres unmarked) [Example 143, (4-(trifluoromethyl)-1H-pyrazol-1-yl)(5-(3-(trifluoromethyl)benzyl)hexahydropyrrolo[3,4-c]pyrrol-2(1H)-yl)methanone]",≥ 75,≥ 75,≥ 7.00,≥ 7.00
"CN(Cc1ccc(C(F)(F)F)cc1)[C@@H]1C[C@@H]2CN(C(=O)n3cc(C(=O)N4CCCC4)cn3)C[C@@H]2C1 [Example 97, (cis-5-(methyl(4-(trifluoromethyl)benzyl)amino)hexahydrocyclopenta[c]pyrrol-2(1H)-yl)(4-(pyrrolidine-1-carbonyl)-1H-pyrazol-1-yl)methanone]",50 to 75,≥ 75,–,–
"NC(=O)c1cnn(C(=O)N2CCC3(CCN(Cc4ccc(N5CCCC5)c(C(F)(F)F)c4)C3)C2)c1 (centres unmarked) [Example 207, 1-(7-(4-(pyrrolidin-1-yl)-3-(trifluoromethyl)benzyl)-2,7-diazaspiro[4.4]nonane-2-carbonyl)-1H-pyrazole-4-carboxamide]",≥ 75,≥ 75,–,–
"CN(Cc1ccccc1Cl)[C@H]1C[C@@H]2CN(C(=O)n3cc(C(=O)N4CCOCC4)cn3)C[C@@H]2C1 [Example 86, (trans-5-((2-chlorobenzyl)(methyl)amino)hexahydrocyclopenta[c]pyrrol-2(1H)-yl)(4-(morpholine-4-carbonyl)-1H-pyrazol-1-yl)methanone]",50 to 75,≥ 75,–,–
